Laboratory results from US20220152174A1, “Cancer Antigen Peptide” (National University Corporation Asahikawa Medical University, priority 2018, published 2022).

Experiments:
[1] = system: SYCP3, SPESP1, and DAZL1 gene expression in EBC1, Lu65, and HT-29; experiment: Gene expression in cancer cell lines cultured with gemcitabine; format: cell-based, human; details: EBC1, Lu65, HT-29 cultured in the presence of gemcitabine
[2] = system: HLA-DR4, DR8, DR9, DR15, DR53; experiment: HLA type restriction of partial DAZL-1 peptides with L-DR cells; format: cell-based, human
[3] = system: helper T-cells; experiment: IFN-γ ELISA after DAZL-1C vaccination of Balb/c mice; format: in vivo, mouse
Method: Two BALB/cAnNCrlCrlj mice (Balb/c, 10 to 16 weeks old, Charles river) were intradermally injected with 100 μg/50 μL DAZL-1C peptide ([…] (SEQ ID NO: 20): synthesized by GenScript) dissolved in phosphate-buffered saline (PBS, KANTO CHEMICAL CO., INC. 73111) using Myjector (TERUMO SS_05M2913) on Days 0 and 10. The mice were euthanized by intraperitoneally administering 200 μL of 500 μg/mL pentobarbital (nacalai tesque 02095-04) on Day 12. After laparotomy, dLNs and spleens were collected and lymphocytes and splenocytes, respectively, were isolated.
The lymphocytes (3×10^5 cells) and the splenocytes (5×10^5 cells) were added to 96-well flat bottom culture plates (Falcon 353072), and the cells were co-cultured in the presence of a control peptide or DAZL-1C peptide (2.5 μg/mL) in the complete medium at 200 μL/well for 24 hours. In order to detect IFN-γ production specific to DAZL-1C peptide, each 100 μL of the culture supernatants after 24 hours were collected, and the IFN-γ concentrations were determined using an ELISA set (BD Biosciences 551866) in accordance with the description of the attached package insert. In order to confirm that the reaction is produced by CD4-positive T-cells, an anti-mouse CD4 antibody (aCD4; BioLegend 100435) or an anti-mouse CD8 antibody (aCD8; BioLegend 100735) was added to some cultures at the final concentration of 5 μg/mL.

[4] = system: CD4-positive T-cells; experiment: IFN-γ ELISPOT after peptide vaccination of HLA transgenic mice; format: in vivo, mouse; details: A2.DR1-Tg mice vaccinated with partial peptides, stimulation 3 μg/mL, 24 hours
Method: HLA-A*02:01/DRB1*01:01 transgenic mice (A2.DR1-Tg mice, […]; Pasteur Institute, France) were intradermally injected with SYCP3-A peptide (synthesized by GenScript) dissolved in 100 μL of PBS using Myjector on Days […]. The mice were euthanized by intraperitoneally administering 200 μL of 500 μg/mL pentobarbital on Day 15. After laparotomy, tumor-draining lymph nodes (dLNs) and spleens were collected and lymphocytes and splenocytes, respectively, were isolated.
The lymphocytes (3×10^5 cells) and the splenocytes (5×10^5 cells) were added to ELISPOT plates (EMD Millipore, MAHAS4510), and the cells were co-cultured in the presence of a control peptide (a peptide of 15 amino acid residues having a sequence not included in SYCP3) or SYCP3-A peptide selected in Test 4 (3 μg/mL) in the complete medium at 150 μL/well for […]. In order to detect the cells producing IFN-γ specifically to SYCP3-A peptide, the ELISPOT assay was performed using a mouse IFN-γ ELISpot BASIC (ALP) kit (MABTECH 3321-2A). The procedure was in accordance with the description of the attached package insert. BCIP-NBT-plus substrate for ELISpot (MABTECH 3650-10) was used as a chromogenic substrate, and PBS-T was used for washing at each step. In addition, in order to confirm that the reaction is produced by CD4-positive T-cells, an anti-mouse CD4 antibody (BioLegend 100435) or an anti-mouse CD8 antibody (BioLegend 100735) was added to some cultures at the final concentration of 5 μg/mL.
As described above, A2.DR1-Tg mice were vaccinated with these partial peptides, dLNs and spleens were collected from each mouse, lymphocytes and splenocytes were isolated, the cells were stimulated with each partial peptide (3 μg/mL) for 24 hours, and the T-cell responses were determined by ELISPOT. CD4-positive T-cells responded to the partial peptides T2, T3, and T4.

[5] = system: SYCP3-A-specific Th cells; experiment: IFN-γ ELISA of SYCP3-A peptide-specific Th cells co-cultured with PBMCs; format: cell-based, human; details: for IFN-γ production of SYCP3-A peptide-specific Th cells: peptide 3 μg/mL, Th cells plus PBMCs of same donor
Method: PBMCs were collected from peripheral blood samples of healthy donors by a density gradient separation method using Lymphoprep (Alere Technologies AS 1114547). CD14 positive cells were separated from PBMCs using a magnetic cell separation system (Miltenyi 130-050-201). Differentiation into dendritic cells (DCs) was induced by culturing the cells in the presence of 50 ng/mL GM-CSF (peprotech AF-300-03) and 50 ng/mL IL-4 (peprotech AF-200-04) with 3 mL of a culture medium for human cells in 6-well culture plates (Falcon 353046) for 7 days. The culture medium was AIM-V medium (ThermoFisher SCIENTIFIC 0870112DK) supplemented with 3% of human AB serum (Innovative RESEARCH IPLA-SERAB) inactivated at 56° C. for 30 minutes. Similarly, CD4-positive T-cells were isolated from PBMCs (Miltenyi 130-045-101), and 1×10^5 CD4-positive T-cells were co-cultured with 5×10^4 DCs in the presence of SYCP3-A or SPESP1-B peptide (3 μg/mL) in 96-well flat bottom culture plates (Falcon 353072) at the volume of 200 μL. After 7 days, in order to stimulate the CD4-positive T-cells with the peptide, 100 μL of the culture supernatant was removed from each well, and then SYCP3-A or SPESP1-B peptide (3 μg/mL) and PBMCs (2×10^5) inactivated by gamma-irradiation (40 Gy) were added at the volume of 100 μL. After 2 days, 50 μL of the culture supernatant was removed, and 50 μL of IL-2 (Imunace35, Shionogi) was added at the final concentration of 10 U/mL. For continuous proliferation of the activated CD4-positive T-cells, the cells (1×10^6 cells) were stimulated with SYCP3-A or SPESP1-B peptide and the inactivated PBMCs (1×10^6 cells) every other week and used for the experiments described below.
In order to study the HLA-restriction of the CD4-positive T-cells, an anti-DR antibody (BioLegend 307612) or an anti-HLA-class I antibody (BioLegend 311412) as a control was added to some cultures at the final concentration of 5 μg/mL.

[6] = system: DAZL1-specific Th cells; experiment: IFN-γ ELISA of DAZL-1 peptide-specific Th cells; format: cell-based, human
Method: (§1) PBMCs were collected from peripheral blood samples of healthy donors by a density gradient separation method using Lymphoprep (Alere Technologies AS 1114547). CD14 positive cells were separated from PBMCs using a magnetic cell separation system (Miltenyi 130-050-201). Differentiation into dendritic cells (DCs) was induced by culturing the cells in the presence of 50 ng/mL GM-CSF (peprotech AF-300-03) and 50 ng/mL IL-4 (peprotech AF-200-04) with 3 mL of a culture medium for human cells in 6-well culture plates (Falcon 353046) for 7 days. The culture medium was AIM-V medium (ThermoFisher SCIENTIFIC 0870112DK) supplemented with 3% of human AB serum (Innovative RESEARCH IPLA-SERAB) inactivated at 56° C. for 30 minutes. Similarly, CD4-positive T-cells were isolated from PBMCs (Miltenyi 130-045-101), and 1×10^5 CD4-positive T-cells were co-cultured with 5×10^4 DCs in the presence of SYCP3-A or SPESP1-B peptide (3 μg/mL) in 96-well flat bottom culture plates (Falcon 353072) at the volume of 200 μL. […]
The IFN-γ concentrations of the culture supernatants were determined in the same manner as in Test 8, except that partial DAZL-1 peptide p11, p12, or p13 was used instead of SYCP3-A peptide. […]

[7] = biological target: T1, HLA-DR53 (Homo sapiens, UniProt P01903+P13762); experiment: HLA type restriction of SPESP1-B with L-DR53; format: cell-based
T1 construct: expressed in transfected cells; host or cells: mouse fibroblast cell line L-DR53
Method: The IFN-γ concentrations of the culture supernatants were determined in the same manner as in Test 8, except that SPESP1-B peptide was used instead of SYCP3-A peptide. Two SPESP1-B-specific Th cell clones (HK15 and HK18) were established from one healthy donor. The peptide-specific IFN-γ production was suppressed when the anti-HLA-DR antibody (aDR) was added to the clones.

[8] = system: SPESP1-B-specific Th cells; experiment: IFN-γ ELISA of SPESP1-B peptide-specific Th cells; format: cell-based, human
Method: as §1
The IFN-γ concentrations of the culture supernatants were determined in the same manner as in Test 8, except that SPESP1-B peptide was used instead of SYCP3-A peptide. […]

[9] = system: HLA-DR53; experiment: HLA type restriction of SYCP3-A with L-DR mouse fibroblast cells; format: cell-based, human; details: SYCP3-A 3 μg/mL
Method: (§2) Furthermore, in order to identify the HLA type to which the peptide is restricted, the CD4-positive T-cells (5×10^4 cells) and 3×10^4 cells of a mouse fibroblast cell line having HLA-DR4, DR8, DR9, or DR53 gene (L-DR4, L-DR8, L-DR9, or L-DR53) were co-cultured in the presence of SYCP3-A peptide (3 μg/mL) in 96-well flat bottom culture plates using 200 μL of the culture medium for human cells, and after 24 to 48 hours the IFN-γ concentrations in the culture supernatants were determined as described above.

[10] = biological target: T1, HLA-DR53; experiment: as above; format: cell-based; details: SYCP3-A 3 μg/mL, L-DR53 cells, 24 to 48 hours
Method: as §2

T1 sequence (P13762 30-266): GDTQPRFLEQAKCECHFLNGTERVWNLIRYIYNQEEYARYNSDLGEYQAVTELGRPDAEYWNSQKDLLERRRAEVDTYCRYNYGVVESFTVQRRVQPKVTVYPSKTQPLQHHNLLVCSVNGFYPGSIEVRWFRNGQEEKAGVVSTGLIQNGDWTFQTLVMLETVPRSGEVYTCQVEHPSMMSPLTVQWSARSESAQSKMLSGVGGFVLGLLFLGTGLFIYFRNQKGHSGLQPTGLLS
T1 sequence (P01903 26-254): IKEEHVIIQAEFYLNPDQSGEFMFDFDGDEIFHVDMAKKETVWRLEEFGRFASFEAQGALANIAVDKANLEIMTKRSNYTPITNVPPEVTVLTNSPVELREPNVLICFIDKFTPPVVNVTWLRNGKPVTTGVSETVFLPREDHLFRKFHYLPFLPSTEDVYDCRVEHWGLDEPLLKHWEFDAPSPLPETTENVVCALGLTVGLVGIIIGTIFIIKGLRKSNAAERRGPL

Nc1ccn([C@@H]2O[C@H](CO)[C@@H](O)C2(F)F)c(=O)n1 [gemcitabine]
gene expression levels of SYCP3, SPESP1, and DAZL1 [1]: equivalent to those of the controls

DVQKIVESQINFHGKKLKLG (listed as Homo sapiens) [p11]
HLA type bound to stimulate Th cells [2]: HLA-DR4/9/53

DVQKIVESQINFHGKKLKLGPAIRKQNLC (listed as Homo sapiens) [DAZL-1C]
ability to activate helper T-cells (peptide-specific IFN-γ production) ([3]; Balb/c mice, 100 μg i.d. Days 0 and 10, restimulation 2.5 μg/mL, 24 hours): activates helper T-cells | IFN-γ production specific to peptide with anti-CD4 antibody ([3]; anti-mouse CD4 antibody 5 μg/mL): inhibited

INFHGKKLKLGPAIRKQNLC (listed as Homo sapiens) [p12]
HLA type bound to stimulate Th cells [2]: HLA-DR15

KILQQSRIVQSQ (listed as Homo sapiens) [T4]
T-cell response of CD4-positive T-cells to partial peptide by ELISPOT [4]: responded | IFN-γ production of SYCP3-A peptide-specific Th cells [5]: Increased IFN-γ production

LGPAIRKQNLCAYHVQPRPL (listed as Homo sapiens) [p13]
IFN-γ production with anti-HLA-DQ antibody [6]: suppressed | HLA type bound to stimulate Th cells [2]: HLA-DR8

QKILQQSRIVQS (listed as Homo sapiens) [T3]
T-cell response of CD4-positive T-cells to partial peptide by ELISPOT [4]: responded | IFN-γ production of SYCP3-A peptide-specific Th cells [5]: Increased IFN-γ production

QNLNHYIQVLENLVRSVPS (listed as Homo sapiens) [SPESP1-B]
HLA type binding and Th cell stimulation [7]: binds to HLA-DR53 and stimulates Th cells | peptide-specific IFN-γ production with anti-HLA-DR antibody ([8]; clones HK15 and HK18, aDR): suppressed | IFN-γ production at low concentration ([8]; peptide 0.0003 μg/mL (serially diluted 0.0003 to 30 μg/mL)): sufficient IFN-γ production

QQKILQQSRIVQ (listed as Homo sapiens) [T2]
T-cell response of CD4-positive T-cells to partial peptide by ELISPOT [4]: responded

QQQKILQQSRIVQSQRLKT (listed as Homo sapiens) [SYCP3-A]
peptide-specific IFN-γ production with anti-HLA-DR antibody ([5]; SYCP3-A 3 μg/mL, aDR 5 μg/mL, Th clones from three healthy donors): suppressed | reactivity in samples having no DR53 allele [9]: some reactivity | peptide-specific reaction (IFN-γ) of Th cells to L-DR53 cells [10]: strong peptide-specific reactions

QQQKILQQSRVVQSQRLKT (listed as Homo sapiens) [SEQ ID NO: 31, 11th isoleucine residue of SYCP3-A peptide substituted with a valine residue]
reactivity of SYCP3-A peptide-specific Th cells compared with SYCP3-A ([5]; modified or substituted peptide, similarly tested): not decreased
